Measurements from patent publication US8207402B2, “Nucleotide sequences encoding enzymes in biosynthesis of dihydroartemisinic acid” (National Research Council of Canada, priority 2006, dated 2012).

What was measured:
[1] = target: T1, recombinant AaALDH1 (Artemisia annua, UniProt C5I9X1); test: Characterization of purified recombinant AaALDH1 (kinetic parameters, substrate specificity); type: biochemical; conditions: for substrate for the recombinant AaALDH1: optimum assay conditions, substrate concentration at 10 times the estimated Km; for Km / Vmax: purified recombinant AaALDH1, 50 mM Tris-HCl buffer, pH 8.5, means of three independent experiments
T1 construct: made in house; host or cells: E. coli BL21(DE3)
T1 sequence (C5I9X1 with tags, fused parts or gaps): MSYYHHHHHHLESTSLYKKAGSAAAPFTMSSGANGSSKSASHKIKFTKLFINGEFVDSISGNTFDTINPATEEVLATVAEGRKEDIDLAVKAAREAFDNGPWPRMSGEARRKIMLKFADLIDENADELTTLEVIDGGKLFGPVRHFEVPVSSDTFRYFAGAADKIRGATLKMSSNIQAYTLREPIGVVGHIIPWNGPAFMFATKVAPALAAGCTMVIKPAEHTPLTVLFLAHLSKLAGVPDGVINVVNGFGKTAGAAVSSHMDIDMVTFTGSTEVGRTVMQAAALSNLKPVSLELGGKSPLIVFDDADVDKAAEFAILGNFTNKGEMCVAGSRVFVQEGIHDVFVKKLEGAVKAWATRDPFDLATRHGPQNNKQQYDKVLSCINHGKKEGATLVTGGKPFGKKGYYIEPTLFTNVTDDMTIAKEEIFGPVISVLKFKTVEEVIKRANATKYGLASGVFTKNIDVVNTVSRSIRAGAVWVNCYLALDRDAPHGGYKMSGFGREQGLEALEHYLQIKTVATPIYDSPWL
Procedure: Purification of Recombinant AaALDH1
Cell-free extract of recombinant AaALDH1 was prepared as described above. The cell-free extract was centrifuged at 20,000 g at 4° C. for 15 minutes to remove any remaining insoluble materials before loading onto a His-Trap FF column (Amersham Bioscience, N.J.) equilibrated with binding buffer (20 mM sodium phosphate buffer containing 500 mM NaCl and 20 mM imidazole at pH 7.5). The column was washed with 5 column volume of binding buffer and the recombinant AaALDH1 eluted with elution buffer (20 mM sodium phosphate, 500 mM NaCl, pH 7.5) containing increasing concentration of imidazole in a step-wise fashion. The eluted fractions were concentrated and desalted in centrifugal filter devices (Amicon Ultra—15) (Millipore, Mass.) following manufacturer's protocol. The purity of the recombinant AaALDH1 was checked with SDS gel stained with Rapid Stain (Biosciences, St. Louis, Mo.).
Characterization of Purified Recombinant AaALDH1
The linearity of the assay with respect to time and protein concentration was first established and the operational saturation of substrate and cofactor determined. The pH optimum was determined by the standard assay in 50 mM buffer (sodium phosphate, Tris-HCl and CHES) from pH 6.0 to 10.0 at 0.5 unit interval containing 1 mM NADP and 1.5 micrograms of the purified recombinant AaALDH1. Kinetic parameters were determined in 50 mM Tris-HCl buffer, pH 8.5 by varying the concentration of the substrates. Kinetic constants were determined by non-linear regression analysis using GraphPad software (GraphPad Software Inc. San Diego, Calif.) and the results presented are the means of three independent experiments. Substrates specificity was determined at optimum reaction conditions with substrates concentration at 10 times the estimated Km value. Substrates tested include artemisinic aldehyde, (11R)-dihydroartemisinic aldehyde, artemisinic alcohol, dihydroartemisinic alcohol, octanal, nonanal, 2-phenyl propionaldehyde, 3-cyclohexyl propionaldehyde, 2-hexen-1-al, syringaldehyde.

[2] = target: T2, recombinant His-tagged AaALDH1 (Artemisia annua, UniProt C5I9X1); test: In vitro cell-free assay of recombinant His-tagged AaALDH1, GC/MS; type: biochemical; conditions: E. coli cell-free extract, 1 mM NADP, pH 8.5, 30 minutes at 30° C.
T2 construct: made in house; host or cells: E. coli BL21(DE3)
T2 sequence (C5I9X1 with tags, fused parts or gaps): as above
Procedure: (§1) The plasmid pKT032 or pKT041 was introduced into E. coli strain BL21(DE3) (Novagen) using heat shock at 42° C. The GUS gene (Invitrogen) was cloned into pDEST17 to replace the ccdB gene and the construct pDEST-GUS introduced into the E. coli strain BL21(DE3) was used as a control. Transformants were grown on Luria Broth (LB) and selected on ampicillin (100 μg/mL) at 37° C. for 24 hours. A single colony containing pKT032 or pKT041 was used to inoculate 5 mL of LB liquid medium with ampicillin (LBA) and grown at 37° C. overnight with shaking. The overnight culture was used to inoculate 250 mL of LBA liquid medium and grown at 37° C. with shaking to an OD600 of 0.6 per mL followed by induction with 1 mM IPTG and grown at 30° C. overnight with shaking. Cells were pelleted at 2,000 g at 4° C. for 10 minutes. The pelleted cells were resuspended in 6 mL of lysis buffer consisting of 50 mM sodium phosphate, pH 8.0, 0.1 M NaCl, 20 mM imidazole and 1 mM phenylmethylsufonyl fluoride (PMSF). Cells were lysed with lysozyme (0.2 mg/mL of cells) on ice for 30 minutes followed by sonication on ice with 30s pulse (5×). Protein concentration was determined by Bradford assay (Bio-Rad). The AaDBR1 protein was detected by silver stain on SDS gel and confirmed by Western Blot using Anti-His antibody (Invitrogen). The AaALDH1 protein was detected by Rapid Stain (Bioscience, St. Louis, Mo.) on SDS gel. […]

[3] = tested on: Plasmodium falciparum; conditions: more active than artesunate; cited from earlier work
[4] = tested on: recombinant His-tagged AaDBR1; test: In vitro cell-free assay of recombinant His-tagged AaDBR1, GC/MS; type: biochemical, Artemisia annua; conditions: E. coli cell-free extract, 1 mM NADPH, pH 7.5, 30 minutes at 30° C.
Procedure: as §1

## CC1=C[C@H]2[C@@H](CC1)[C@H](C)CC[C@H]2[C@@H](C)C=O [(11R)-dihydroartemisinic aldehyde]
[1]
  substrate for the recombinant AaALDH1: found to be a substrate
[2]
  product formation by AaALDH1 cell-free extract (GC/MS, FIG. 11): NADP-dependent formation of dihydroartemisinic acid

## C[C@H]1[C@H](N2CCS(=O)(=O)CC2)O[C@@H]2O[C@@]3(C)CC[C@H]4[C@H](C)CC[C@@H]1[C@@]24OO3 [Artemisone]
[3]
  activity relative to artesunate: 10-30 fold

## C=C(C=O)[C@@H]1CC[C@@H](C)[C@@H]2CCC(C)=C[C@@H]21 [artemisinic aldehyde]
[4]
  product formation by AaDBR1 cell-free extract (GC/MS, FIG. 10): NADPH-dependent formation of (11S)-dihydroartemisinic aldehyde as the major product
[1]
  substrate for the recombinant AaALDH1: found to be a substrate
  Km: 2.62 µM
  Vmax: 28.6 pkat/μg protein

## CC1=C[C@H]2[C@@H](CC1)[C@H](C)CC[C@H]2[C@@H](C)C(=O)O [dihydroartemisinic acid]
[1]
  Km: 8.79 µM
  Vmax: 143.8 pkat/μg protein
